Data taken from PubChem BioAssay AID179 (DTP/NCI, 2004).
The source made the active and inactive calls.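 The calls were made as follows: active = compounds giving half or more protection of infected cells from virus-caused growth loss, again on retest; inactive = the rest.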

Tested on: CEM cells HIV-1 protection, formazan growth assay
Experiment: NCI AIDS Antiviral Assay
Details: for IC50: measured here: growth of uninfected CEM cells
Method in brief: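 Five concentrations of each compound were applied to infected and uninfected human CEM cells. Protection from HIV-1 was judged from growth measured with a soluble formazan assay.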

SMILES | EC50 [µM] | IC50 [µM] | outcome
COc1cc2c(cc1OC)[C@H]1C(COC(=O)c3ccccc3)CSC(=Nc3ccccc3)N1CC2 (some centres undefined) | > 10.2 | > 10.2 | –
CCC1(OC(=O)CN)C(=O)OCc2c1cc1n(c2=O)Cc2cc3ccccc3nc2-1 (centres undefined) | > 10 | 0.00692 | –
Cc1ccc2c(c1)C(=O)C1(C2)Cc2ccc(C)cc2C1=O | 191 | > 200 | –
COC(=O)CC(NC(=O)OCc1ccccc1)C(C(C)=O)C(=O)OCc1ccccc1 (centres undefined) | > 75.9 | > 75.9 | –
O=C(NCP(=O)(c1ccccc1)c1ccccc1)OCc1ccccc1 | > 200 | > 200 | –
C=C1C(=O)OC2CC(C)C(/C=C/C(C)=O)=CCC12 (centres undefined) | > 363 | 56.2 | –
O=C(Nc1ccc(C(=O)O)c(O)c1)c1ccc(C(=O)Nc2ccc(C(=O)O)c(O)c2)cc1 | > 200 | 89.1 | –
O=C1OCC23CCC4C1C42CC1(CC3)OCCO1 (centres undefined) | > 200 | > 200 | –
COc1ccc(/C=c2\sc3n(c2=O)CCN=3)cc1 | – | – | inactive
O=C1NC(=O)C23C(=O)NC(=O)C12C1C=CC3CC1 (centres undefined) | > 200 | > 200 | –
CC(=O)Nc1[nH]c(=O)[nH]c(=O)c1N(C(C)=O)C(C)=O | > 933 | > 933 | –
CCN(CC)CCSc1c2cc(OC)ccc2nc2ccc(OC)cc12 | > 200 | 2.95 | –
COc1cc(C2SCC(=O)N2c2ccc(-n3c(-c4ccccc4)nc4ccccc4c3=O)cc2)ccc1O (centres undefined) | > 200 | 102 | –
COc1ccc(S(=O)(=O)NNS(C)(=O)=O)cc1 | > 447 | 87.1 | –
CCCOP(=O)(OCCC)OC(C(F)(F)F)C(F)(F)F | > 200 | > 200 | –
COCC12CCC(OC)C34C5CC6(O)C(OC)CC(OC(C)=O)(C5C6OC(=O)c5ccccc5)C(C(OC)C13)C4N(C)C2 (centres undefined) | – | – | inactive
O=C1CSC(=O)N1 | > 2140 | > 2140 | –
CN(C)C(CN)CC1=C(CC(CN)N(C)C)CCC1 (centres undefined) | – | – | inactive
CC(=O)C(=[N+]=[N-])C(=O)N1CCOC1=O | > 200 | > 200 | –
Oc1ccccc1/C=C/c1csnn1 | > 178 | > 178 | –
COc1ccc(N2C(=O)C3c4[nH]c5ccc(OCc6ccccc6)cc5c4C4CCC(c5ccccc5)CC4C3C2=O)cc1 (centres undefined) | > 100 | > 100 | –
Cc1nc2c(ccc3c(C)c(C)c(C)nc32)c(C)c1C | > 20 | 0.977 | –
COc1cc2c(cc1O)C1C(O)C(O)C=C3CCN(C2)C31 (centres undefined) | – | – | inactive

SMILES | EC50 [µM] | IC50 [µM] | outcome
CC1(C)OC(=O)C(C)(C)OC1=O | > 200 | > 200 | –
O=C1C(Cl)=C(O)C2(Cl)C(Cl)=C(Cl)C12Cl (centres undefined) | – | – | inactive
Cc1cccc(C)c1NC(=S)NNC(=O)NNC(=S)Nc1c(C)cccc1C | > 200 | > 200 | –
Clc1ccc(CNc2nc(Cl)c3[nH]cnc3n2)cc1Cl | > 200 | 22.9 | –
CO[C@H]1O[C@@H]2OC3(C)CCC4[C@H](C)CCC([C@H]1C)[C@]42OO3 (some centres undefined) | > 200 | 112 | –
CC12C/C(=C\c3ccccc3)C(=O)C3C1CCCC32 | – | – | inactive
CC(=O)C1C(=O)C(=O)N(CCN2C(=O)C(=O)C(C(C)=O)C2=O)C1=O (centres undefined) | > 11.2 | > 11.2 | –
O=C1COc2ccc([N+](=O)[O-])cc2C(=O)C1 | > 200 | > 200 | –
COC(=O)c1cc(C(=O)OC)c(C/C(=N/NC(N)=S)C(=O)Nc2ccc(Cl)c(Cl)c2)nc1C/C(=N/NC(N)=S)C(=O)Nc1ccc(Cl)c(Cl)c1 | > 200 | > 200 | –
COc1cc2c(c(O)c1C)C(=O)CC(c1ccccc1)O2 (centres undefined) | > 35.5 | > 35.5 | –
CC1(C)OC(=O)c2cc(C(=CC=O)c3cc(Cl)c4c(c3)C(=O)OC(C)(C)O4)cc(Cl)c2O1 | > 200 | 36.3 | –
N#C/C(N)=C(\C#N)NC(=O)C(=O)N/C(C#N)=C(\N)C#N | 69.2 | > 200 | –
CCCNC(=S)NNC(=O)CSc1nc(-c2ccccc2)c(-c2ccccc2)[nH]1 | > 117 | 57.5 | –
CCn1c2c(c3ccccc3c1=O)C(=O)c1ccccc1-2 | > 26.3 | > 26.3 | –
O=[N+]([O-])C(=C/c1cccs1)/C(=C\c1cccs1)[N+](=O)[O-] | > 200 | 1.55 | –
O=C(NNC(=O)c1ccccc1O)c1ccc(O)cc1 | > 200 | 14.5 | –
CC1(C)O[C@@H](CO)[C@H]([C@@]23OC[C@H]4OC(C)(C)OC4[C@@H]2OC(C)(C)O3)O1 (some centres undefined) | > 200 | > 200 | –
O=C(/C=C/c1ccc([N+](=O)[O-])o1)N1CCN(Cc2ccccc2)CC1 | > 95.5 | 11.2 | –
CCOC(=O)c1nn(Cc2ccccc2)c(=S)[nH]c1=O | – | 123 | inactive
Cc1ccc([P+](Cc2ccccc2)(c2ccccc2)c2cccc3ccccc23)cc1 (centres undefined) | > 200 | 0.55 | –
N#CCCN(c1ccc(-c2nnc(NC(=O)CNNC(=O)CC(=O)Nc3ccccc3)s2)cc1)S(=O)(=O)c1ccccc1 | > 41.7 | > 41.7 | –
O=C1C(=O)N(C2C3CC4CC(C3)CC2C4)C(=O)C(=O)C1c1nc2ccccc2o1 (centres undefined) | > 91.2 | 52.5 | –
